What was measured:
Assay in all cases: relative viability (nuclei count vs DMSO), 5 days (fraction); higher = more cells survive
[1] = compound: O[C@@H](COc1cccc2ncccc12)CN1CCN([C@@H]2c3ccccc3[C@@H]3[C@H](c4ccccc42)C3(F)F)CC1 [Zosuquidar] + Cc1nc(NC(=O)N2CCC[C@H]2C(N)=O)sc1-c1ccnc(C(C)(C)C(F)(F)F)c1 [Alpelisib] (partner 2 µM)
Summary of the method: (§1)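 After 5 days of treatment, lung cancer cells in 1536-well plates were fixed and stained in a single step (final 0.05% Triton X-100, 1% formaldehyde, 1 ug/ml Hoechst) and their nuclei counted on 4× images. Treatment had been applied by pin tool the day after seeding as one drug alone or as a fixed anchor-drug dose with five library-drug doses (not always all listed) in √10 steps. Relative viability is the nuclei count of treated wells divided by that of vehicle wells, and values are medians of duplicate plates.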

[2] = compound: O[C@@H](COc1cccc2ncccc12)CN1CCN([C@@H]2c3ccccc3[C@@H]3[C@H](c4ccccc42)C3(F)F)CC1 [Zosuquidar] + COc1cccc2cc(-c3nc([C@H]4CC[C@H](C(=O)O)CC4)n4ncnc(N)c34)[nH]c12 [OSI-027] (partner 0.5 µM)
Summary of the method: as §1

[3] = compound: O[C@@H](COc1cccc2ncccc12)CN1CCN([C@@H]2c3ccccc3[C@@H]3[C@H](c4ccccc42)C3(F)F)CC1 [Zosuquidar] + C[C@@H](Oc1cc(-c2cnn(C3CCNCC3)c2)cnc1N)c1c(Cl)ccc(F)c1Cl [Crizotinib] (partner 1 µM)
Summary of the method: as §1

[4] = compound: O[C@@H](COc1cccc2ncccc12)CN1CCN([C@@H]2c3ccccc3[C@@H]3[C@H](c4ccccc42)C3(F)F)CC1 [Zosuquidar] + COc1cc2c(Oc3ccc(NC(=O)C4(C(=O)Nc5ccc(F)cc5)CC4)cc3F)ccnc2cc1OCCCN1CCOCC1 [Foretinib] (partner 0.25 µM)
Summary of the method: as §1

With NCI-H1666 the relative viability ([1]; first compound 0.01 µM) was 0.876, the relative viability ([1]; first compound 0.03162 µM) was 1.04 and the relative viability ([1]; first compound 0.1 µM) was 1.04. It also gave a relative viability ([1]; first compound 0.3162 µM) of 0.912, a relative viability ([1]; first compound 1 µM) of 0.863 and a relative viability ([2]; first compound 0.01 µM) of 0.844. It also gave a relative viability ([2]; first compound 0.03162 µM) of 0.919, a relative viability ([2]; first compound 0.1 µM) of 0.8 and a relative viability ([2]; first compound 0.3162 µM) of 0.957. For the same cell line, the relative viability ([2]; first compound 1 µM) was 0.957, the relative viability ([3]; first compound 0.01 µM) was 1.02 and the relative viability ([3]; first compound 0.03162 µM) was 0.975. It also gave a relative viability ([3]; first compound 0.1 µM) of 1.18, a relative viability ([3]; first compound 0.3162 µM) of 0.986 and a relative viability ([3]; first compound 1 µM) of 1.08. The relative viability ([4]; first compound 0.01 µM) was 0.946, the relative viability ([4]; first compound 0.03162 µM) was 1.01 and the relative viability ([4]; first compound 0.1 µM) was 0.976. For the same cell line, the relative viability ([4]; first compound 0.3162 µM) was 1.02 and the relative viability ([4]; first compound 1 µM) was 0.942.
In the case of NCI-H1734, the relative viability ([1]; first compound 0.01 µM) is reported as 0.815, the relative viability ([1]; first compound 0.03162 µM) is reported as 0.666 and the relative viability ([1]; first compound 0.1 µM) is reported as 0.631. For the same cell line, the relative viability ([1]; first compound 0.3162 µM) was 0.809, the relative viability ([1]; first compound 1 µM) was 0.643 and the relative viability ([2]; first compound 0.01 µM) was 0.587. The relative viability ([2]; first compound 0.03162 µM) was 0.612, the relative viability ([2]; first compound 0.1 µM) was 0.541 and the relative viability ([2]; first compound 0.3162 µM) was 0.697. For the same cell line, the relative viability ([2]; first compound 1 µM) was 0.662, the relative viability ([3]; first compound 0.01 µM) was 0.64 and the relative viability ([3]; first compound 0.03162 µM) was 0.566. It also gave a relative viability ([3]; first compound 0.1 µM) of 0.662, a relative viability ([3]; first compound 0.3162 µM) of 0.72 and a relative viability ([3]; first compound 1 µM) of 0.705. The relative viability ([4]; first compound 0.01 µM) was 0.816, the relative viability ([4]; first compound 0.03162 µM) was 0.868 and the relative viability ([4]; first compound 0.1 µM) was 0.775. It also gave a relative viability ([4]; first compound 0.3162 µM) of 0.938 and a relative viability ([4]; first compound 1 µM) of 0.817.
Cell Line NCI-H1755 has a relative viability ([1]; first compound 0.01 µM) of 0.89, a relative viability ([1]; first compound 0.03162 µM) of 0.951 and a relative viability ([1]; first compound 0.1 µM) of 0.888. It also gave a relative viability ([1]; first compound 0.3162 µM) of 0.94, a relative viability ([1]; first compound 1 µM) of 0.913 and a relative viability ([2]; first compound 0.01 µM) of 0.736. For the same cell line, the relative viability ([2]; first compound 0.03162 µM) was 0.67, the relative viability ([2]; first compound 0.1 µM) was 0.516 and the relative viability ([2]; first compound 0.3162 µM) was 0.821. It also gave a relative viability ([2]; first compound 1 µM) of 0.722, a relative viability ([3]; first compound 0.01 µM) of 0.859 and a relative viability ([3]; first compound 0.03162 µM) of 0.924. It also gave a relative viability ([3]; first compound 0.1 µM) of 0.839, a relative viability ([3]; first compound 0.3162 µM) of 0.881 and a relative viability ([3]; first compound 1 µM) of 0.876. The relative viability ([4]; first compound 0.01 µM) was 0.908, the relative viability ([4]; first compound 0.03162 µM) was 0.894 and the relative viability ([4]; first compound 0.1 µM) was 0.841. For the same cell line, the relative viability ([4]; first compound 0.3162 µM) was 0.959 and the relative viability ([4]; first compound 1 µM) was 0.932.
NCI-H1915 gave a relative viability ([1]; first compound 0.01 µM) of 1.04, a relative viability ([1]; first compound 0.03162 µM) of 1.1 and a relative viability ([1]; first compound 0.1 µM) of 0.989. It also gave a relative viability ([1]; first compound 0.3162 µM) of 1.06, a relative viability ([1]; first compound 1 µM) of 1.08 and a relative viability ([2]; first compound 0.01 µM) of 0.642. It also gave a relative viability ([2]; first compound 0.03162 µM) of 0.624, a relative viability ([2]; first compound 0.1 µM) of 0.529 and a relative viability ([2]; first compound 0.3162 µM) of 0.637. It also gave a relative viability ([2]; first compound 1 µM) of 0.599, a relative viability ([3]; first compound 0.01 µM) of 0.868 and a relative viability ([3]; first compound 0.03162 µM) of 0.938. The relative viability ([3]; first compound 0.1 µM) was 0.887, the relative viability ([3]; first compound 0.3162 µM) was 0.882 and the relative viability ([3]; first compound 1 µM) was 0.909. The relative viability ([4]; first compound 0.01 µM) was 0.951, the relative viability ([4]; first compound 0.03162 µM) was 1.11 and the relative viability ([4]; first compound 0.1 µM) was 1.07. The relative viability ([4]; first compound 0.3162 µM) was 1.12 and the relative viability ([4]; first compound 1 µM) was 1.13.
With NCI-H1944 the relative viability ([1]; first compound 0.01 µM) was 0.836, the relative viability ([1]; first compound 0.03162 µM) was 0.722 and the relative viability ([1]; first compound 0.1 µM) was 0.717. For the same cell line, the relative viability ([1]; first compound 0.3162 µM) was 0.837, the relative viability ([1]; first compound 1 µM) was 0.765 and the relative viability ([2]; first compound 0.01 µM) was 0.381. It also gave a relative viability ([2]; first compound 0.03162 µM) of 0.384, a relative viability ([2]; first compound 0.1 µM) of 0.328 and a relative viability ([2]; first compound 0.3162 µM) of 0.479. It also gave a relative viability ([2]; first compound 1 µM) of 0.412, a relative viability ([3]; first compound 0.01 µM) of 1.03 and a relative viability ([3]; first compound 0.03162 µM) of 1.09. For the same cell line, the relative viability ([3]; first compound 0.1 µM) was 1.03, the relative viability ([3]; first compound 0.3162 µM) was 1.04 and the relative viability ([3]; first compound 1 µM) was 1.12. The relative viability ([4]; first compound 0.01 µM) was 0.774, the relative viability ([4]; first compound 0.03162 µM) was 0.862 and the relative viability ([4]; first compound 0.1 µM) was 0.898. For the same cell line, the relative viability ([4]; first compound 0.3162 µM) was 0.883 and the relative viability ([4]; first compound 1 µM) was 0.824.
NCI-H1975 gave a relative viability ([1]; first compound 0.01 µM) of 0.624, a relative viability ([1]; first compound 0.03162 µM) of 0.653 and a relative viability ([1]; first compound 0.1 µM) of 0.679. It also gave a relative viability ([1]; first compound 0.3162 µM) of 0.675, a relative viability ([1]; first compound 1 µM) of 0.713 and a relative viability ([2]; first compound 0.01 µM) of 0.789. It also gave a relative viability ([2]; first compound 0.03162 µM) of 0.684, a relative viability ([2]; first compound 0.1 µM) of 0.679 and a relative viability ([2]; first compound 0.3162 µM) of 0.885. For the same cell line, the relative viability ([2]; first compound 1 µM) was 0.832, the relative viability ([3]; first compound 0.01 µM) was 0.923 and the relative viability ([3]; first compound 0.03162 µM) was 0.941. For the same cell line, the relative viability ([3]; first compound 0.1 µM) was 1.01, the relative viability ([3]; first compound 0.3162 µM) was 0.924 and the relative viability ([3]; first compound 1 µM) was 1.09. For the same cell line, the relative viability ([4]; first compound 0.01 µM) was 0.959, the relative viability ([4]; first compound 0.03162 µM) was 0.832 and the relative viability ([4]; first compound 0.1 µM) was 1.02. It also gave a relative viability ([4]; first compound 0.3162 µM) of 0.952 and a relative viability ([4]; first compound 1 µM) of 1.02.
Work on NCI-H1993 yielded a relative viability ([1]; first compound 0.01 µM) of 0.628, a relative viability ([1]; first compound 0.03162 µM) of 0.725 and a relative viability ([1]; first compound 0.1 µM) of 0.625. For the same cell line, the relative viability ([1]; first compound 0.3162 µM) was 0.674, the relative viability ([1]; first compound 1 µM) was 0.705 and the relative viability ([2]; first compound 0.01 µM) was 0.632. For the same cell line, the relative viability ([2]; first compound 0.03162 µM) was 0.677, the relative viability ([2]; first compound 0.1 µM) was 0.488 and the relative viability ([2]; first compound 0.3162 µM) was 0.497. It also gave a relative viability ([2]; first compound 1 µM) of 0.525, a relative viability ([3]; first compound 0.01 µM) of 0.864 and a relative viability ([3]; first compound 0.03162 µM) of 0.859. The relative viability ([3]; first compound 0.1 µM) was 0.789, the relative viability ([3]; first compound 0.3162 µM) was 1.01 and the relative viability ([3]; first compound 1 µM) was 0.881. The relative viability ([4]; first compound 0.01 µM) was 0.758, the relative viability ([4]; first compound 0.03162 µM) was 0.724 and the relative viability ([4]; first compound 0.1 µM) was 0.701. It also gave a relative viability ([4]; first compound 0.3162 µM) of 0.81 and a relative viability ([4]; first compound 1 µM) of 0.673.
Cell Line NCI-H2009 has a relative viability ([1]; first compound 0.01 µM) of 1.08, a relative viability ([1]; first compound 0.03162 µM) of 0.96 and a relative viability ([1]; first compound 0.1 µM) of 1.19. The relative viability ([1]; first compound 0.3162 µM) was 1.15, the relative viability ([1]; first compound 1 µM) was 1.14 and the relative viability ([2]; first compound 0.01 µM) was 0.64. It also gave a relative viability ([2]; first compound 0.03162 µM) of 0.684, a relative viability ([2]; first compound 0.1 µM) of 0.529 and a relative viability ([2]; first compound 0.3162 µM) of 0.782. For the same cell line, the relative viability ([2]; first compound 1 µM) was 0.645, the relative viability ([3]; first compound 0.01 µM) was 1.02 and the relative viability ([3]; first compound 0.03162 µM) was 1.01. For the same cell line, the relative viability ([3]; first compound 0.1 µM) was 1.05, the relative viability ([3]; first compound 0.3162 µM) was 1.06 and the relative viability ([3]; first compound 1 µM) was 1.01. It also gave a relative viability ([4]; first compound 0.01 µM) of 1.24, a relative viability ([4]; first compound 0.03162 µM) of 1.2 and a relative viability ([4]; first compound 0.1 µM) of 1.24. For the same cell line, the relative viability ([4]; first compound 0.3162 µM) was 1.2 and the relative viability ([4]; first compound 1 µM) was 1.23.

From the supplement of paper PMC10307832
